Measurements: ChEMBL document CHEMBL3232787, “Lipopeptides from the tropical marine cyanobacterium Symploca sp” (J Nat Prod, 2014)

Tests used:
HCT-116 = experiment: Cytotoxicity against human HCT116 cells after 120 hrs by hemocytometer; assay type: functional, cell-based; details: HCT-116, 120 h
KB = experiment: Cytotoxicity against human KB cells; assay type: functional, cell-based

Compound | IC50 (HCT-116) | IC50 (KB)
CC[C@H](C)[C@@H](NC(=O)[C@H](CCC(N)=O)N(C)C(=O)[C@H](OC(=O)[C@@H](O)C(C)C)C(C)C)C(=O)N[C@@H](C)C(=O)N(C)[C@H](Cc1ccccc1)C(=O)N1CCC[C@H]1C(=O)OC | > 25 µM | 
CC[C@H](C)[C@H](NC(=O)[C@H](CCC(N)=O)N(C)C(=O)[C@H](OC(=O)[C@@H](O)C(C)C)C(C)C)C(=O)N[C@@H](C)C(=O)N[C@H](Cc1ccccc1)C(=O)N1CCC[C@H]1C(=O)OC | 25 µM | 
CC[C@H](C)[C@H](O)C(=O)N[C@@H](CC(C)C)C(=O)N(C)[C@@H](CCC(N)=O)C(=O)N[C@H](C(=O)NCC(=O)N(C)[C@H](Cc1ccccc1)C(=O)N1CCC[C@H]1C(=O)OC)[C@@H](C)CC [TASIAMIDE] |  | 0.48 µM
